Data from patent US12109264B2, “Motile sperm domain containing protein 2 and inflammation” (ImmuneWalk Therapeutics, Inc., priority 2015, dated 2024).
“Also recorded” adds a separate entry of the source.

Tests used:
MOSPD2 [1] = target: T1, MOSPD2 (Homo sapiens, UniProt Q8NHP6); experiment: Precipitation of human monocyte proteins with labeled compound, differential display by Mass-Spectrometry; format: binding; conditions: proteins from human monocytes
T1 construct: labelled VB-201 and VB-221 were employed on cell lysates from human CD14 monocytes; endogenous in cells; host or cells: primary human CD14 monocytes from peripheral blood of healthy donors
T1 sequence (Q8NHP6 1-518): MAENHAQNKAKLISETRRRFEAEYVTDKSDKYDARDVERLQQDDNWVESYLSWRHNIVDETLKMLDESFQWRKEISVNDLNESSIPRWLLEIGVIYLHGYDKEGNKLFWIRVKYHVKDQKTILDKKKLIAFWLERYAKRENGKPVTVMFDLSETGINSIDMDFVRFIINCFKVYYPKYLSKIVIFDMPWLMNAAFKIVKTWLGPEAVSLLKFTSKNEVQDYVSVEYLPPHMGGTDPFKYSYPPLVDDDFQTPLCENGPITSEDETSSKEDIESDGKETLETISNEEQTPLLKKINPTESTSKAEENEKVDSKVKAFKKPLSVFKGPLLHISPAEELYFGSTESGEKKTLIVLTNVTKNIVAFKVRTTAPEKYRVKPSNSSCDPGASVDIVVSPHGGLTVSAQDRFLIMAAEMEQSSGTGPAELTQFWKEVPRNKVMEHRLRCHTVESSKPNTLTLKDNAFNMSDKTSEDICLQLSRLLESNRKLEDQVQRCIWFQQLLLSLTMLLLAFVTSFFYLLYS

MOSPD2 [2] = target: T1, MOSPD2; experiment: Precipitation from human CD14 monocyte lysate, blot against MOSPD2; format: binding; conditions: labelled compound (OB201/OB221)
Protocol: (§1) VB-201 and VB-221 were labeled with biotin as follows. VB-201, VB-221 and ovalbumin (OVA, Sigma, Israel) were dissolved in 0.1M MES buffer (Thermo Scientific, Rockford, IL) and conjugated using EDC [1-ethyl-3-(dimethylaminopropyl) carbodiimide HCL] (Thermo Scientific) at a molar ratio of 100 (VB-201/VB-221):1 (OVA):240 (EDC) for 2-3 hr at room temperature. After which, samples were transferred to 10 kDa dialysis cassettes (Thermo Scientific) and dialyzed overnight against PBS. The ovalbumin bound VB-201 (OB201) and VB-221 (OB221) were then conjugated with amine-PEG2-biotin (in 0.1M MES buffer) using EDC at a molar ratio of 1 (OB201/0B221):100 (amine-PEG2-biotin):700 (EDC). The reaction was allowed to proceed for 2-3 hr at room temperature after which samples were again transferred to a 10 kDa dialysis cassette and dialyzed overnight against PBS.
(§2) Cells were lysed using a 1% NP-40 lysis buffer containing 1:100 protease and phosphatase inhibitors, followed by 20 min incubation on ice and 15 min centrifugation at maximum speed. Samples were incubated overnight at 4° C. with solvent, OB201 or OB221 in a rotator. Streptavidin agarose beads (Sigma, Israel) were added for 2 hours. Protein elution was performed with lysis buffer without DTT for 10 min at room temperature. Sample loading, transfer and immuno-blotting were performed as described above. […]

TLR2 = target: T2, TLR2 (Homo sapiens, UniProt O60603); experiment: Precipitation from human CD14 monocyte lysate, blot against TLR2; format: binding; conditions: labelled compound (OB201/OB221)
T2 construct: endogenous in cells; host or cells: primary human CD14 monocytes
Protocol: as §1, §2

[3] = target: T3, HA-tagged human MOSPD2 on HEK293 cells (Homo sapiens, UniProt Q8NHP6); experiment: Cell-surface binding by flow cytometry on transfected HEK293 cells; conditions: for staining of / binding to cells that express MOSPD2 (HA positive): labelled compound (OB201/OB221), streptavidin-APC, HEK293 transfected with HA-tagged MOSPD2
T3 construct: Full length human MOSPD2 cDNA was inserted, using EcoRI and XbaI restriction sites; HA (YPYDVPDYA); expressed in transfected cells; host or cells: HEK293
T3 sequence (Q8NHP6 1-518): T1 sequence (Q8NHP6 1-518)
Protocol: HEK293 cells were transfected for 48 hours with empty plasmid or plasmid encoding hemagglutinin (HA)-tagged human MOSPD2 using jetPRIME transfection reagent (Polyplus transfection, France). Transfection efficiency was determined by flow cytometry using anti-HA-PE (miltenyi Biotec, Germany) antibody.
as §1
Streptavidin-APC (eBioscience, San Diego, CA) was used to detect binding of labelled VB-201 or VB-221 in flow cytometry experiments.
Studies were also conducted to assess whether VB-201 can bind MOSPD2 in its native form, when expressed on the cell surface. Thus, HEK293 cells were transfected with a plasmid encoding HA-tagged human MOSPD2 and then stained with labelled VB-201 or VB-221.

monocytes = conditions: cited from earlier work
[4] = test system: chemokine-induced signaling in human monocytes; conditions: cited from earlier work

T2 sequence (O60603 21-784): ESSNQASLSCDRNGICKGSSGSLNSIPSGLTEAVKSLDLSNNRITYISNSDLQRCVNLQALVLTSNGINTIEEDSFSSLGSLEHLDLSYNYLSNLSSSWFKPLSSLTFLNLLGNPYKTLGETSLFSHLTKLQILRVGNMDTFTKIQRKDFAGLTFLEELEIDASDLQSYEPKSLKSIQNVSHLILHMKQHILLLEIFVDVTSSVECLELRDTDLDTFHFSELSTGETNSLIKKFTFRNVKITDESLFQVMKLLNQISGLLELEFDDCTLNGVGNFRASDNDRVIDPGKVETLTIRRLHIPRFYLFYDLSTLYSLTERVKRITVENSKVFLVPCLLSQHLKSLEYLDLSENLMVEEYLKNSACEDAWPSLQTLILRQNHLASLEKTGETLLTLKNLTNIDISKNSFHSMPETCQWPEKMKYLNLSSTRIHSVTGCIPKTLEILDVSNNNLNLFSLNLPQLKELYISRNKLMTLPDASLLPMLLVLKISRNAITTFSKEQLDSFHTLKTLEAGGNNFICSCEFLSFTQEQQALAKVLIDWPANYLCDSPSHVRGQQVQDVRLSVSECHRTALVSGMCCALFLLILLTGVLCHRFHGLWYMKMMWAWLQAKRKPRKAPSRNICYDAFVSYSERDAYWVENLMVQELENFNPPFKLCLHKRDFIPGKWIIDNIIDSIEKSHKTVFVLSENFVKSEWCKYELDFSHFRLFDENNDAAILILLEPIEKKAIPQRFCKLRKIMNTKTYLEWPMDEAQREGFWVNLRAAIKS

| Compound | binding of MOSPD2 (Mass-Spectrometry of precipitated proteins) (MOSPD2 [1]) | precipitation of MOSPD2 (MOSPD2 [2]) | precipitation of TLR2 (TLR2) | binding to cells transfected with empty vector ([3]; HEK293 transfected with empty vector) | staining of / binding to cells that express MOSPD2 (HA positive) [3] | migration of monocytes (monocytes; in vitro and in vivo) | chemokine-induced migration in human monocytes (monocytes) | chemokine-induced signaling in human monocytes [4] |
| --- | --- | --- | --- | --- | --- | --- | --- | --- |
| 1-hexadecyl-2-(4′-carboxy)butyl-glycero-3-phosphocholine [VB-201] | strong binding | binds; also recorded: markedly more intense than VB-221 | comparable intensity | not | binds; also recorded: profound staining | inhibits |  |  |
| CCCCCCCCCCC(CCCCCCCC)COCC(COP(=O)([O-])OCC[N+](C)(C)C)OCCCCC(=O)O (centres unmarked) [VB-221, 1-(2′-octyl)dodecyl-2-(4′-carboxy)butyl-glycero-3-phosphocholine] | not |  | comparable intensity |  | only weak staining |  | did not inhibit | did not inhibit |
